According to PubChem BioAssay (NCI):
Where “and” joins values, the source holds several entries; their conditions need not be identical. Equal entries are not always repeated.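 A five-concentration, 48-hour dose response in 96-well plates underlies each endpoint, interpolated linearly between surrounding concentrations. GI50 = concentration required for 50% inhibition of growth. The concentration for full growth arrest is given as TGI.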

How the values were obtained:
Test in all cases: growth of human tumour cells (NCI), 48 h
[1] = test system: ACHN renal
[2] = test system: A549 NSCLC
[3] = test system: HCT-15 colon
[4] = test system: HS 578T breast
[5] = test system: SW-620 colon
[6] = test system: MDA-MB-231 breast
[7] = test system: SF-539 CNS
[8] = test system: HL-60(TB) leukemia

SMILES	GI50 [1] [µM]	TGI [1]	GI50 [2] [µM]	TGI [2]	GI50 [3] [µM]	TGI [3]	GI50 [4] [µM]	TGI [4]	TGI [5]	TGI [6]	TGI [7]	GI50 [5] [µM]	GI50 [6] [µM]	GI50 [7] [µM]	GI50 [8] [µM]	TGI [8]
O=C1C(Cl)=C(Nc2cccc(O)c2)C(=O)N1c1ccc(Cl)c(Cl)c1	17.3	33.3 µM	23.9	60.6 µM	19.9	45.5 µM	20.5	54.3 µM								
CC(=O)OC1CCC2(C)C(=CCC3C2CCC2(C)C(C(C)C(=O)O)CCC32)C1 (configuration not stated)		> 100 µM		> 100 µM		> 100 µM		> 100 µM	> 100 µM	> 100 µM	> 100 µM					
COc1ccc(-c2nn(-c3cccc(NC(=O)Nc4cc(C(F)(F)F)cc(C(F)(F)F)c4)c3)cc2-c2ccncc2)cc1Cl	1.14	50 µM	1.07	7.6 µM	0.962	4.08 µM	1.17	5.52 µM	6.5 µM	2.12 µM	2.25 µM	1.35	0.85	0.88	1.24	3.63 µM
O=c1[nH]c(SCc2c(Cl)c(Cl)c(Cl)c(Cl)c2Cl)nc(=S)[nH]1		> 100 µM		> 100 µM		> 100 µM		> 100 µM	> 100 µM	> 100 µM	> 100 µM					51.4 µM
N#Cc1c(-c2ccccc2)cc(-c2ccccc2)n(CCCCC(=O)NO)c1=O	2.32	7.91 µM	3.29	15.7 µM	0.57	13.6 µM	2.03	8.18 µM	11.9 µM	10.1 µM	10.4 µM	2.95	3.27	2.51	2.39	6.84 µM
COc1cc([C@@H]2c3cc4c(cc3[C@@H](O[C@@H]3O[C@@H]5CO[C@@H](c6cccs6)O[C@H]5[C@H](O)[C@H]3O)[C@H]3COC(=O)[C@H]23)OCO4)cc(OC)c1O		3.69 µM	0.0969	2.56 µM		> 55.9 µM	2.03	15.3 µM	> 46.1 µM	7.43 µM	0.432 µM	0.175	1.56	0.0972	0.119	0.967 µM
OC(COc1cccc2ccccc12)CN1CCN(c2ccccc2)CC1 (configuration not stated)	16.2	30.6 µM	19.3	36.6 µM	18.8	35.7 µM	15.8	47.3 µM	30.1 µM	31.8 µM	33.9 µM	15.2	15.8	18.1	21.1	52.4 µM
COc1ccc(/C=C\c2cc(OC)c(OC)c(OC)c2)cc1OC(=O)c1cccc(Cn2cc(CCOC(=O)c3cccc(Cn4nnc5c4C(=O)c4ccccc4C5=O)c3)nn2)c1	0.0153	> 84.5 µM	0.0392	> 37.9 µM	< 0.01	> 100 µM	< 0.01	21.4 µM	> 100 µM	16.3 µM	0.134 µM	< 0.01	< 0.01	< 0.01	< 0.01	0.0125 µM
CC(=O)OC[C@]12CC[C@@H]([C@@H](C)C(N)=O)[C@@H]1[C@H]1CC[C@@H]3[C@@]4(C)CC[C@H](OC(C)=O)C(C)(C)[C@@H]4CC[C@@]3(C)[C@]1(C)CC2	5.78	27.3 µM	3.97	47.5 µM	4.04	15.3 µM	12.4	38.6 µM	24.2 µM	30.8 µM	17.7 µM	7.69	11.8	5.52	2.76	8.4 µM
C#CCNC(=O)CC[C@]1(C)[C@H]2CC[C@@H]3[C@@H]([C@@](C)(O)CCC=C(C)C)CC[C@@]3(C)[C@]2(C)CC[C@H]1C(=C)C	25.3	> 100 µM	42.7	> 100 µM	20.8	59.3 µM	50.2	> 100 µM	> 100 µM	67.5 µM	31.1 µM	29.4	22.3	17.2	1.19	15.9 µM
COc1c(CNC(=O)CCl)cc2[nH]c(C)cc2c1CNC(=O)CCl	5.47	31.6 µM	7.38	26.7 µM	14.9	> 100 µM	4.97	76.8 µM	20.7 µM	41.3 µM	29.8 µM	5.61	6.12	7.09	4.32	26.5 µM
CN(C)CCN=Cc1c2ccccc2c(=O)n2c1oc1ccccc12	2.63	11.2 µM	4.13	20.7 µM	5.37	22.1 µM				29 µM	8.81 µM		12.5	2.96	10.9	55 µM
CC1=C(/C=C/C(C)=C/C=C/C(C)=C/C(=O)Nc2ccc(O)cc2)C(C)(C)CCC1	4.79	16.3 µM and 17.7 µM	2.43	14.2 µM and 26.5 µM		17.9 µM and 25.2 µM	6.25	27.4 µM and 13.7 µM	13.7 µM and 44.5 µM	10.1 µM and 6.06 µM	1.73 µM and 3.39 µM		1.79	0.355	0.278	1.31 µM and 9.51 µM
COC(=O)[C@H](CC(C)C)NC(=O)NC(=O)NC(=O)CI	1.78	3.38 µM	20.3	39.6 µM	1.66	3.13 µM	24.3	77.4 µM	3.53 µM	25.8 µM	12.2 µM	1.83	10.2	3.16		
O=C1c2ccccc2-c2c1c1ccccc1c(=O)n2CCCN1CCN(CCCn2c3c(c4ccccc4c2=O)C(=O)c2ccccc2-3)CC1	22.4	> 100 µM	> 100	> 100 µM	> 79.7	> 100 µM	> 100	> 100 µM	> 100 µM	27.4 µM	> 100 µM	> 100	2.41	> 70.6	79.7	> 100 µM
CCOC(=O)C1=C(C)NC(=O)NC1c1coc2cc(C)cc(C)c2c1=O (configuration not stated)		> 100 µM		> 100 µM		> 100 µM		> 100 µM	> 100 µM	> 100 µM	> 100 µM					> 100 µM

SMILES	GI50 [1] [µM]	TGI [1]	GI50 [2] [µM]	TGI [2]	GI50 [3] [µM]	TGI [3]	GI50 [4] [µM]	TGI [4]	TGI [5]	TGI [6]	TGI [7]	GI50 [5] [µM]	GI50 [6] [µM]	GI50 [7] [µM]	GI50 [8] [µM]	TGI [8]
CCCCN(CCCC)CCCN=c1nc2c(c(N)n1-c1ccccc1)c(=S)n(-c1ccccc1)c(=S)n2-c1ccccc1	0.567	1.8 µM	1.46	3.48 µM	0.309	1.14 µM	0.78	3.16 µM	2.62 µM	1.53 µM	2.84 µM	0.568	0.555	1.36	0.211	> 100 µM
Clc1ccc(-c2nn3ncccc3c2-c2ccnc(Nc3ccccc3)n2)cc1	3.69	> 25 µM	11.3	> 25 µM	7.94	> 25 µM	6.4	> 22 µM	> 25 µM	> 25 µM	> 25 µM	12	13.4	> 14.2	11.3	> 25 µM
C[C@H]1CC[C@@H]2[C@@H](C)[C@H]3[C@H](C[C@H]4[C@@H]5CC=C6C[C@@H](O)CC[C@]6(C)[C@H]5C[C@H](O)[C@]34C)N2C1		> 100 µM		> 100 µM		> 100 µM		> 100 µM	> 100 µM	> 100 µM	> 100 µM					
C=C1C(=O)O[C@@H]2C[C@@H]1CC[C@@]1(C)O[C@@H]1CC[C@@]1(C)O[C@@H]1CC[C@@]2(C)O	21.5	66.4 µM	73.8	> 100 µM	24	70.1 µM	21.6	61.2 µM	42.2 µM	31.6 µM	75.9 µM	14.1	13.7	26.7	10.3	32.8 µM
CC[CH2][Sn]([Cl])([Cl])[CH2]CC	6.88	20 µM	18.2	34.3 µM	11.3	25.5 µM	6.13	28.4 µM	11.5 µM	18.9 µM	25 µM	2.61	5.16	11.1	2.94	> 100 µM
COc1cc(C2CC(c3cc(C)ccc3C)=NN2c2ccc(S(=O)(=O)NC(=O)NCc3ccccc3)cc2)cc(OC)c1OC (configuration not stated)	3.47	13.2 µM	3.31	14.4 µM	3.18	> 100 µM	2.68	7.67 µM	> 100 µM	13.3 µM	4.69 µM	3.62	2.96	2.02	3.62	11.4 µM
COc1ccc(C2=C(c3cc(OC)c(OC)c(OC)c3)C(=O)CC2)cc1	1.8	> 100 µM	0.193	> 100 µM	0.147	> 100 µM	0.0827		> 100 µM	> 100 µM	> 48.3 µM	0.082	0.62	0.189	0.11	1.21 µM
CC[C@@H](C(=O)[C@@H](C)[C@@H](O)[C@H](C)[C@@H]1O[C@@H]([C@@H](CC)C(=O)O)CC[C@@H]1C)[C@H]1OC2(C=C[C@@H](O)[C@]3(CC[C@@](C)([C@H]4CC[C@](O)(CC)[C@H](C)O4)O3)O2)[C@H](C)C[C@@H]1C (some centres not stated)	1.68	> 50 µM	0.233	9.77 µM	1.42	> 50 µM	0.311	> 50 µM	9.14 µM	17.1 µM	8.85 µM	0.733	0.239	0.434	0.0894	0.316 µM
N#CN1CCC[C@H]1C(=O)N1CCc2c(-c3[nH]nc4ncccc34)cccc21	< 0.01	7.89 µM	0.106	> 25.1 µM	< 0.01	11.3 µM	0.239	> 100 µM	13.5 µM	0.177 µM	< 0.01 µM	< 0.01	< 0.01	< 0.01	< 0.01	< 0.01 µM
CC1(C)CC2C=C(C=O)C3(C=O)CC3(C)C2C1 (configuration not stated)		2.83 µM		27.2 µM		3.94 µM			2.4 µM	3.87 µM	3.51 µM					> 100 µM
Cc1ccccc1N=Nc1c(O)[nH]c2ccccc12		> 100 µM		> 100 µM		> 100 µM		> 100 µM	> 100 µM	> 100 µM						> 100 µM
C=C(C)[C@@H]1CCC2=C[C@@H](OC2=O)[C@@H](C(=C)C)C(=O)/C=C(/C)C(=O)C1	37.3	> 100 µM	36.9	> 100 µM	24.1	69.7 µM	35.1	> 100 µM	68.4 µM	> 100 µM	95.4 µM	24.7	45.2	36.5		
CC(=O)OCC1OC(OC2=C(CC=C(Cl)Cl)C(=O)c3ccccc3C2=O)C(OC(C)=O)C(OC(C)=O)C1OC(C)=O (configuration not stated)	3.24	12 µM	19.5	41.4 µM	3.64	21.3 µM	3.98	32.2 µM	3.88 µM	5.62 µM	14.6 µM	1.74	2.05	4.09		
CC1=C([Se]CC(OC(=O)[C@@H](CO)NC(=O)OC(C)(C)C)C(=O)NC(C)(C)C)C(=O)c2ccccc2C1=O (some centres not stated)	1.57	3.02 µM	1.81	9.44 µM	1.99	3.97 µM			3.33 µM	3.14 µM	3.05 µM	1.77	1.62	1.57	0.87	3.81 µM
O=C(NNC(=O)c1ccncc1)c1ccncc1		> 100 µM		> 100 µM		> 100 µM		> 100 µM	> 100 µM	> 100 µM						> 100 µM
CC1(C)C(=S)C(C)(C)C1=S		> 100 µM		> 100 µM		> 100 µM		> 100 µM	> 100 µM	> 100 µM	> 100 µM					
